Results published in PMC11373213, “Anti-Toxoplasma gondii effects of XYP1-derived peptides and regulatory mechanisms of XYP1” (Parasites & Vectors, 2024).
Peptide text beside a SMILES is read from it.

Columns and labels:
T. gondii tachyzoites [1] = experiment: Trypan blue staining (exclusion) assay, killing of tachyzoites; type: cell-based, Toxoplasma gondii; settings: 10 μM peptide, 2 h incubation with T. gondii, optical microscope, Fig. 2A
Procedure: When T. gondii died, trypan blue was able to cross its cell membrane and enter the interior, making it blue. Trypan blue exclusion test was undertaken as mentioned before. Firstly, 10 μM different XYP1-derived peptides were prepared, incubated with T. gondii for 2 h, and then the trypan blue dye was added. After 3–5 min, the survival rate of T. gondii was observed by optical microscope and the mortality rate was calculated.

CCK-8 cytotoxicity assay = type: cell-based; settings: human; CCK-8, HFFs, 24 h with peptide then 2 h with CCK-8, OD540; Fig. 3C
Procedure: […] After 24 h, 10 μL CCK-8 solution (APExBIO, USA) was added and incubated for another 2 h. The OD540 value was then measured and the cell mortality was calculated.

[2] = test system: tachyzoites of RH-GFP-TgAtg8 T. gondii strain; experiment: Fluorescence microscopy killing assay with RH-GFP-TgAtg8 tachyzoites; type: cell-based, Toxoplasma gondii; settings: for fluorescence area and intensity of RH-GFP-TgAtg8 tachyzoites vs control: 10 μM peptide, 2 h incubation, fluorescence microscopy, Fig. 2C, D; for concentration dependence of killing effect (fluorescence area and intensity): 5 μM, 10 μM, 20 μM, room temperature, 2 h, Fig. 3A, B
Procedure: To explore the concentration dependence of the polypeptides against T. gondii, XYP1-derived peptide solutions with different concentration gradients (5 μM, 10 μM, 20 μM) were prepared and then mixed with T. gondii tachyzoites at room temperature. After incubation for 2 h, the anti-T. gondii effect was observed by fluorescence microscopy.

[3] = test system: T. gondii RH strain tachyzoites; experiment: Mouse survival assay after T. gondii RH infection; type: in vivo; settings: mice i.p. 1000 RH strain tachyzoites; for effect on survival time of infected mice (in words): peptide after 4 h, 4 mg/kg, Fig. 3E; for survival of infected mice prolonged to: peptide injected after 4 h, 4 mg/kg (legend; method says 4 mg/mL), control group all died at 127.1 h
Procedure: The anti-T. gondii effect of peptides in vivo was investigated through a mouse survival experiment. The experiment was divided into a PBS control group and different polypeptide groups. Each group of mice was intraperitoneally injected with 1000 RH strain tachyzoites. After 4 h, the pre-prepared 4 mg/mL peptides were injected into the mice. The survival time of mice in each group was recorded and analyzed statistically.

T. gondii tachyzoites [4] = experiment: Transmission electron microscopy of tachyzoite internal structure; type: cell-based, Toxoplasma gondii; settings: 10 μM peptide, 2 h; Fig. 5
Procedure: TEM steps mainly include fixing, rinsing, dehydration, infiltration, embedding, etc. After the T. gondii samples were fixed in 4% glutaraldehyde, they were washed with a cacodylate buffer, and 1% osmium tetroxide was used to fix the sample at 4 ℃ for 2 h. The fixed samples were then washed and subjected to a series of gradient dewatering treatments before being embedded in epoxy resin and polymerized at 60 ℃. After polymerization, the sample was sliced and double stained. Finally, the internal structure of T. gondii tachyzoites treated with different polypeptides was observed by TEM (Tecnai G2 Spirit TWIN, USA).

human red blood cells = experiment: Hemolysis assay; type: cell-based; settings: 1% human red blood cells in PBS, 37 ℃, 30 min, OD540
Procedure: The hemolytic activity of peptides was determined by the amount of hemoglobin released from lysed human red blood cells. Normal human blood was mixed 1:1 with Aldrin’s fluid, followed by centrifuging, and phosphate buffered saline (PBS) was added to make 1% red blood cell resuspension. The 50 μL resuspension was mixed with 50 μL PBS, 1% Triton X-100, 70% DMSO (Sigma, USA), and different concentrations of polypeptides, then incubated at 37 ℃ for 30 min. After centrifugation, the OD540 value of the supernatant was measured by Microplate reader (Agilent, USA) and the hemolysis rate was calculated.

IL-17 = experiment: qRT-PCR of IL-17 transcription; type: cell-based, human; settings: qPCR, XYP1 treatment group vs control; Fig. 7F
Procedure: (§1) The control group consisted of HFF cells infected with T. gondii without XYP1, and the experimental group was treated with XYP1 for 8 h. Total RNAs were extracted from the control and experimental groups and reverse to cDNA, with three replicates per group. After the steps of end repair, A-tailing, and adapter ligation, the samples were proceeded with polymerase chain reaction (PCR) amplification and Illumina transcriptome sequencing in the OE biotech Co., Ltd. (Shanghai, China). Trimmomatic software was used to filter the raw data to obtain high-quality data information. Subsequently, the filtered data was aligned and assembled using HISAT2 [30] and StringTie tool. The number of reads mapped to each gene in each sample was calculated.
(§2) The total RNAs from different samples were extracted using the classical Trizol method. The PerfectStart Uni RT&qPCR Kit (TransGen Biotech, China) was used to efficiently reverse transcribe RNA into cDNA and synthesize the first strand. The qRT-PCR reaction system contains cDNA temple, forward and reverse primers, double stranded DNA fluorescent dye (SYBR Green I), DNA polymerase, dNTP and buffer. The PCR reaction was performed using a two-step amplification procedure: 94 ℃ for 30 s (pre-denaturation) followed by 40 cycles of 94 ℃ for 5 s and 60 ℃ for 30 s. Finally, the relative expression of each gene was calculated by 2^−∆∆Cq method.

TP53 = experiment: qRT-PCR of TP53 transcription; type: cell-based, human; settings: qPCR, XYP1 treatment group vs control; Fig. 7G
Procedure: as §1, §2

NF-kB = experiment: qRT-PCR of NF-kB transcription; type: cell-based, human; settings: qPCR, XYP1 treatment group vs control; Fig. 7H
Procedure: as §1, §2

T. gondii tachyzoites [5] = settings: 10 μM XYP1; previous study; cited from earlier work
Procedure: Therefore, trypan blue staining assay was used to compare the killing activity in vitro of 10 μM different derived peptides and XYP1.

## CC[C@H](C)[C@H](NC(=O)[C@H](CCCCN)NC(=O)[C@H](CCCCN)NC(=O)[C@H](C)NC(=O)[C@@H](NC(=O)[C@H](CCCCN)NC(=O)[C@H](CCCCN)NC(=O)[C@H](CCSC)NC(=O)[C@H](CCCCN)NC(=O)[C@H](CCCCN)NC(=O)[C@H](Cc1ccccc1)NC(=O)[C@H](Cc1c[nH]c2ccccc12)NC(=O)[C@H](CCCCN)NC(=O)[C@H](CCCCN)NC(=O)[C@@H](N)CC(C)C)[C@@H](C)CC)C(=O)N[C@@H](C)C(=O)N[C@@H](CCCCN)C(=O)N[C@@H](CC(C)C)C(=O)O [XYP1-18-1] (H-LKKWFKKMKKIAKKIAKL-OH; N-terminus and C-terminus assumed)
T. gondii tachyzoites [1]
  anti-T. gondii killing activity (toxoplasma mortality, trypan blue): good anti-T. gondii activity
CCK-8 cytotoxicity assay
  IC50 at 24 h: 45.6 µM
[2]
  fluorescence area and intensity of RH-GFP-TgAtg8 tachyzoites vs control: significantly reduced compared with the control group
[3]
  effect on survival time of infected mice (in words): poor effect on prolonging the survival time of mice
  survival of infected mice prolonged to: 145 h
T. gondii tachyzoites [4]
  damage of internal structure of tachyzoites (TEM): shrinkage and vacuolization, but also complete dissolution of the tachyzoites observed

## CC[C@H](C)[C@H](NC(=O)[C@H](Cc1ccccc1)NC(=O)[C@H](CCCCN)NC(=O)[C@H](C)NC(=O)[C@@H](NC(=O)[C@H](CO)NC(=O)[C@H](CCCCN)NC(=O)[C@H](CCSC)NC(=O)[C@H](C)NC(=O)[C@H](CCCCN)NC(=O)[C@H](Cc1ccccc1)NC(=O)[C@H](Cc1c[nH]c2ccccc12)NC(=O)[C@H](CCCCN)NC(=O)[C@@H](NC(=O)[C@@H](N)CCCCN)[C@@H](C)CC)[C@@H](C)CC)C(=O)N[C@@H](C)C(=O)N[C@@H](CCCCN)C(=O)N[C@@H](CC(=O)O)C(=O)O [XYP1-18] (H-KIKWFKAMKSIAKFIAKD-OH; N-terminus and C-terminus assumed)
T. gondii tachyzoites [1]
  anti-T. gondii killing activity (toxoplasma mortality, trypan blue): comparable to XYP1
CCK-8 cytotoxicity assay
  IC50 at 24 h: 80.6 µM
[2]
  concentration dependence of killing effect (fluorescence area and intensity): statistically different
  fluorescence area and intensity of RH-GFP-TgAtg8 tachyzoites vs control: significantly reduced compared with the control group
Human red blood cells; 1.25 μM to 80 μM
  hemolysis at 1.25 μM to 80 μM: almost no hemolysis
Human red blood cells; 160 μM
  hemolysis at the highest concentration (160 μM): only minor hemolysis
[3]
  effect on survival time of infected mice (in words): no significant difference between XYP1-18 and XYP1
  survival of infected mice prolonged to: 191 h
T. gondii tachyzoites [4]
  damage of internal structure of tachyzoites (TEM): severe deformation and rupture of the surface membrane, but also serious shrinkage and vacuolization internally

## CC[C@H](C)[C@H](NC(=O)[C@H](Cc1ccccc1)NC(=O)[C@H](CCCCN)NC(=O)[C@H](C)NC(=O)[C@@H](NC(=O)[C@H](CO)NC(=O)[C@H](CCCCN)NC(=O)[C@H](CCSC)NC(=O)[C@H](C)NC(=O)[C@H](CCCCN)NC(=O)[C@H](Cc1ccccc1)NC(=O)[C@H](Cc1c[nH]c2ccccc12)NC(=O)[C@H](CCCCN)NC(=O)[C@@H](NC(=O)[C@@H](N)CCCCN)[C@@H](C)CC)[C@@H](C)CC)C(=O)N[C@@H](C)C(=O)N[C@@H](CCCCN)C(=O)N[C@@H](CC(=O)O)C(=O)N[C@@H](CCC(N)=O)C(=O)N[C@@H](CC(C)C)C(=O)N[C@@H](CCCCN)C(=O)N[C@@H](CCCCN)C(=O)N[C@@H](Cc1c[nH]cn1)C(=O)N[C@@H](CC(C)C)C(=O)O [XYP1] (H-KIKWFKAMKSIAKFIAKDQLKKHL-OH; N-terminus and C-terminus assumed)
T. gondii tachyzoites [1]
  anti-T. gondii killing activity (toxoplasma mortality, trypan blue): consistent with the previous findings
CCK-8 cytotoxicity assay
  IC50 at 24 h: 33.6 µM
IL-17
  transcription level of IL-17: down-regulated
[2]
  concentration dependence of killing effect (fluorescence area and intensity): statistically different
Human red blood cells; 1.25 μM to 10 μM
  hemolysis at 1.25 μM to 10 μM: almost no hemolysis reaction was observed
TP53
  transcription level of TP53: down-regulated
NF-kB
  transcription level of NF-kB: up-regulated
[3]
  survival of infected mice prolonged to: 208.5 h
T. gondii tachyzoites [5]
  killing of T. gondii tachyzoites: can kill T. gondii tachyzoites
T. gondii tachyzoites [4]
  damage of internal structure of tachyzoites (TEM): ruptures in the surface membrane, but also different degrees of vacuolization internally
